Data reported in patent US20120077883A1, “TREATMENT OF TINNITUS AND ASSOCIATED AUDITORY DYSFUNCTIONS” (priority 2009, published 2012).
Read-outs that look alike come from different tables or passages of the source.

How the values were obtained:
subjects with tinnitus = system: subjects with tinnitus
Text: Four selected outcome variables were used in this preliminary analysis: Global improvement (GI), Tinnitus Handicap Inventory (THI) and Tinnitus Impairment Questionnaire (TBF 12) questionnaires and Minimum Masking Levels (MML). The changes on the outcome variables were obtained by subtracting week 12's scores from the screening scores. The presence of a negative result means a decrease on values.
In Table 2 the changes on outcome variables are listed by Global Improvement (GI) classification, as follows: GI 1=much better; 2=better; 3=slightly better; 4=no change; 5=slightly worse; 6=worse; 7=much worse; THI: Tinnitus Handicap Inventory, TBF 12: Tinnitus Impairment Questionnaire; MML: minimal masking levels, measured in dB HL (Hearing Level).
Four different criteria were established to determine whether a subject responded or not to treatment (see Table 3).

fibromyalgia patients = details: 10 to 40 mg over a 12 week period; cited from earlier work
[1] = Criteria 1: improvement on GI, 15 subjects
[2] = Criteria 2: Criteria 1 + decrease on THI
[3] = Criteria 3: Criteria 2 + decrease on TBF 12
[4] = Criteria 4: Criteria 3 + decrease on MML

CN(C)CCC=C1c2ccccc2C=Cc2ccccc21 [Cyclobenzaprine]
Most frequent side effects (subjects with tinnitus; 15 subjects, oral 15-30 mg/day): dry mouth and constipation | Non responders % (subjects with tinnitus; Criteria 1: improvement on GI): 26.7% | Non responders n (subjects with tinnitus; Criteria 1: improvement on GI): 4 | Responders % (subjects with tinnitus; [1]): 73.3% | Responders n (subjects with tinnitus; [1]): 11 | Non responders % (subjects with tinnitus; [2]): 26.4% | Non responders n (subjects with tinnitus; [2]): 4 | Responders % (subjects with tinnitus; [2]): 73.3% | Responders n (subjects with tinnitus; [2]): 11 | Non responders % (subjects with tinnitus; [3]): 33.3% | Non responders n (subjects with tinnitus; [3]): 5 | Responders % (subjects with tinnitus; [3]): 66.6% | Responders n (subjects with tinnitus; [3]): 10 | Non responders % (subjects with tinnitus; [4]): 46.7% | Non responders n (subjects with tinnitus; [4]): 7 | Responders % (subjects with tinnitus; [4]): 53.3% | Responders n (subjects with tinnitus; [4]): 8 | Subjects Better or Much Better on GI (subjects with tinnitus; FIG. 1, 15 subjects): 8 subjects | Tolerability (subjects with tinnitus; common side effects like constipation and dry mouth): tolerated well by most subjects | Sleep and muscle relaxation (subjects with tinnitus; described by many patients): Improvement on sleep and muscle relaxation | Subjects with changes on tinnitus pitch (subjects with tinnitus; human, in vivo): 5 out of 15 subjects | Side effect that led one subject to interrupt the study (subjects with tinnitus; one subject, week 8): severe constipation | Results in tinnitus at a dosage of 30 mg/day (subjects with tinnitus; oral, 30 mg/day): Excellent results | Tinnitus change noticed where MML was not possible to measure (subjects with tinnitus; subject 3, intermittent tinnitus): change on intensity and less episodes | Progression of Minimum Masking Levels (MML) during the tests (subjects with tinnitus; subjects 4, 8, 9, 10 and 11, FIGS. 2-6): progressive reduction | Effect on tinnitus severity and tinnitus loudness (subjects with tinnitus; tested subjects): positive effect | Tinnitus after treatment was weaned off (subjects with tinnitus; weaned off after 12 weeks): got worse in some patients | Quality of sleep and pain score (fibromyalgia patients): significantly improved | Total number of tender points and muscle tightness (fibromyalgia patients): reduction
